Biological target: PD-1/PD-L1 (Homo sapiens (Human), UniProt Q9NZQ7)
Experiment: PD-1/PD-L1 biochemical protein-protein interaction assay (ALPHA)
Settings: 0.3 nM His tagged PD-L1, 2.5 nM biotinylated Fc-PD-1, 60 minutes at 25° C., read-out: IC50 PD-L1-PD1

PD-1/PD-L1, sequence (Q9NZQ7 19-238): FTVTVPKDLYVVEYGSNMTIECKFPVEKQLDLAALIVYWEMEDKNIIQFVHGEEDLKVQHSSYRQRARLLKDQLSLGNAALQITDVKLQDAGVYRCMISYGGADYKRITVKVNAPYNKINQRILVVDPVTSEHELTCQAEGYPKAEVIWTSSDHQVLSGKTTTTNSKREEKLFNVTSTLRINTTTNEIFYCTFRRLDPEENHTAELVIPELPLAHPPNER

Row | SMILES | IC50
1 | COc1nc(-c2cccc(-c3cccc(-c4cnc(CN5CCCC6(C5)NC(C)=NC6=O)c(OC)n4)c3Cl)c2Cl)cnc1CNC[C@@H]1CCC(=O)N1 (stereo partly drawn) [compound 291] | 0.216 nM
2 | COc1nc(-c2cccc(-c3cccc(-c4cnc(CN5CCC6(C5)NC(=O)NC6=O)c(OC)n4)c3Cl)c2Cl)cnc1CNC[C@@H]1CCC(=O)N1 (stereo partly drawn) [compound 292] | 0.229 nM
3 | COc1nc(-c2cccc(-c3cccc(-c4cnc(CN5CCCC6(C5)NC(=O)NC6=O)c(OC)n4)c3Cl)c2Cl)cnc1CNC[C@@H]1CCC(=O)N1 (stereo partly drawn) [compound 293] | 0.516 nM
4 | COc1nc(-c2cccc(-c3cccc(-c4cnc(CN5CCC6(C5)NC(=O)N(C)C6=O)c(OC)n4)c3Cl)c2Cl)cnc1CNC[C@@H]1CCC(=O)N1 (stereo partly drawn) [compound 294] | 0.298 nM
5 | COc1nc(-c2cccc(-c3cccc(-c4cnc(CN[C@@H]5CCO[C@@H]5C)c(OC)n4)c3Cl)c2Cl)cnc1CNC[C@@H]1CCC(=O)N1 [compound 295] | 0.414 nM
6 | COc1nc(-c2cccc(-c3cccc(-c4cnc(CNC[C@@H]5CCC(=O)N5)c(OC)n4)c3Cl)c2Cl)cnc1CNC[C@H]1CCOC1 [compound 296] | 0.222 nM
7 | COc1nc(-c2cccc(-c3cccc(-c4cnc(CN(C)[C@H]5CCOC5)c(OC)n4)c3Cl)c2Cl)cnc1CNC[C@@H]1CCC(=O)N1 [compound 297] | 0.254 nM
8 | COc1nc(-c2cccc(-c3cccc(-c4cnc(CN5CCC6(CC(CO)C6)C5)c(OC)n4)c3Cl)c2Cl)cnc1CNC[C@@H]1CCC(=O)N1 (stereo partly drawn) [compound 298] | 0.181 nM
9 | COc1nc(-c2cccc(-c3cccc(-c4cnc(CN5CC[C@@H](CO)[C@@H](O)C5)c(OC)n4)c3Cl)c2Cl)cnc1CNC[C@@H]1CCC(=O)N1 [compound 300] | 0.299 nM
10 | COc1nc(-c2cccc(-c3cccc(-c4cnc(CN5CC6(CCS6(=O)=O)C5)c(OC)n4)c3Cl)c2Cl)cnc1CNC[C@@H]1CCC(=O)N1 [compound 301] | 0.25 nM
11 | COc1nc(-c2cccc(-c3cccc(-c4cnc(CNC[C@@H]5CCC(=O)N5)c(OC)n4)c3Cl)c2Cl)cnc1CNCC(N)=O [compound 302] | 0.089 nM
12 | COc1nc(-c2cccc(-c3cccc(-c4cnc(CNC[C@@H]5CCC(=O)N5C)c(OC)n4)c3Cl)c2Cl)cnc1CNC[C@@H]1CCC(=O)N1 [compound 303] | 0.256 nM
13 | COc1nc(-c2cccc(-c3cccc(-c4cnc(CN[C@@H](CO)C(N)=O)c(OC)n4)c3Cl)c2Cl)cnc1CNC[C@@H]1CCC(=O)N1 [compound 304] | 0.29 nM
14 | COc1nc(-c2cccc(-c3cccc(-c4cnc(CNC[C@@H]5CCC(=O)N5)c(OC)n4)c3Cl)c2Cl)cnc1CNCc1cccn(C)c1=O [compound 305] | 0.244 nM
15 | COc1nc(-c2cccc(-c3cccc(-c4cnc(CNC[C@@H]5CCC(=O)N5)c(OC)n4)c3Cl)c2Cl)cnc1CNCC1CCS(=O)(=O)N1 (stereo partly drawn) [compound 306] | 0.245 nM
16 | COc1nc(-c2cccc(-c3cccc(-c4cnc(CN5CC6(C5)CC(C)(O)C6)c(OC)n4)c3Cl)c2Cl)cnc1CNC[C@@H]1CCC(=O)N1 [compound 307] | 0.167 nM
17 | COc1nc(-c2cccc(-c3cccc(-c4cnc(CN5CC6(C5)CC(O)(C(F)(F)F)C6)c(OC)n4)c3Cl)c2Cl)cnc1CNC[C@@H]1CCC(=O)N1 [compound 308] | 0.337 nM
18 | COC[C@H]1CCN1Cc1ncc(-c2cccc(-c3cccc(-c4cnc(CNC[C@@H]5CCC(=O)N5)c(OC)n4)c3Cl)c2Cl)nc1OC [compound 309] | 0.178 nM
19 | COC[C@@H]1CCN1Cc1ncc(-c2cccc(-c3cccc(-c4cnc(CNC[C@@H]5CCC(=O)N5)c(OC)n4)c3Cl)c2Cl)nc1OC [compound 310] | 0.216 nM
20 | COc1nc(-c2cccc(-c3cccc(-c4cnc(CNC[C@@H]5CCC(=O)N5)c(OC)n4)c3Cl)c2Cl)cnc1CNCC1CS(=O)(=O)C1 [compound 311] | 0.24 nM
21 | COc1nc(-c2cccc(-c3cccc(-c4cnc(CN5C[C@H]6CC(=O)N[C@H]6C5)c(OC)n4)c3Cl)c2Cl)cnc1CNC[C@@H]1CCC(=O)N1 [compound 312] | 0.295 nM
22 | COc1nc(-c2cccc(-c3cccc(-c4cnc(CNC[C@@H]5CCC(=O)N5)c(OC)n4)c3Cl)c2Cl)cnc1CNCC[C@H]1CCC(=O)N1 [compound 314] | 0.142 nM
23 | COc1nc(-c2cccc(-c3cccc(-c4cnc([C@@H](C)N)c(OC)n4)c3Cl)c2Cl)cnc1CNC[C@@H]1CCC(=O)N1 [compound 315] | 0.18 nM
24 | COc1nc(-c2cccc(-c3cccc(-c4cnc([C@H](C)N)c(OC)n4)c3Cl)c2Cl)cnc1CNC[C@@H]1CCC(=O)N1 [compound 316] | 0.17 nM
25 | COc1nc(-c2cccc(-c3cccc(-c4cnc(CN[C@@H](C)[C@H]5CCC(=O)N5)c(OC)n4)c3Cl)c2Cl)cnc1CN[C@@H](C)[C@H]1CCC(=O)N1 [compound 317] | 0.22 nM
26 | COc1nc(-c2cccc(-c3cccc(-c4cnc(CNC[C@@H]5CCC(=O)N5)c(OC)n4)c3Cl)c2Cl)cnc1CN [compound 318] | 0.15 nM
27 | CNc1nc(-c2cccc(-c3cccc(-c4cnc(CN(C)C[C@@H]5CCC(=O)N5)c(NC)n4)c3Cl)c2Cl)cnc1CN(C)C[C@@H]1CCC(=O)N1 [compound 319] | 3.87 nM

Row | SMILES | IC50
28 | CNc1nc(-c2cccc(-c3cccc(-c4cnc(CNC[C@H]5CCC(=O)N5)c(NC)n4)c3Cl)c2Cl)cnc1CNC[C@H]1CCC(=O)N1 [compound 320] | 3.72 nM
29 | COc1nc(-c2cccc(-c3cccc(-c4cnc(CN[C@@H]5CCN(S(C)(=O)=O)C5)c(OC)n4)c3Cl)c2Cl)cnc1CN[C@@H]1CCN(S(C)(=O)=O)C1 [compound 321] | 0.46 nM
30 | COc1nc(-c2cccc(-c3cccc(-c4cnc(CN(C)C[C@@H]5CCC(=O)N5)c(OC)n4)c3Cl)c2Cl)cnc1CN(C)CCO [compound 322] | 0.23 nM
31 | COc1nc(-c2cccc(-c3cccc(-c4cnc(CN(C)CCO)c(OC)n4)c3Cl)c2Cl)cnc1CNC[C@@H]1CCC(=O)N1 [compound 323] | 0.12 nM
32 | COc1nc(-c2cccc(-c3cccc(-c4cnc(CNC[C@H]5NC(=O)[C@@H]6C[C@H]56)c(OC)n4)c3Cl)c2Cl)cnc1CNC[C@H]1NC(=O)[C@@H]2C[C@H]12 [compound 324] | 0.358 nM
33 | COc1nc(-c2cccc(-c3cccc(-c4cnc(CN(Cc5ccccc5)C[C@@H]5CCC(=O)N5)c(OC)n4)c3Cl)c2Cl)cnc1CNC[C@@H]1CCC(=O)N1 [compound 325] | 1.86 nM
34 | COc1nc(-c2cccc(-c3cccc(-c4cnc(CNC[C@@H]5C[C@@H](C)C(=O)N5)c(OC)n4)c3Cl)c2Cl)cnc1CNC[C@@H]1C[C@@H](C)C(=O)N1 [compound 326] | 0.18 nM
35 | COc1nc(-c2cccc(-c3cccc(-c4cnc(CN(C)C[C@@H]5CCC(=O)N5)c(OC)n4)c3Cl)c2Cl)cnc1CN(C)C[C@@H]1CCC(=O)N1 [compound 327] | 0.238 nM
36 | COc1nc(-c2cccc(-c3cccc(-c4cnc(CN(CC5CC5)C[C@@H]5CCC(=O)N5)c(OC)n4)c3Cl)c2Cl)cnc1CN(CC1CC1)C[C@@H]1CCC(=O)N1 [compound 328] | 4.04 nM
37 | COc1nc(-c2cccc(-c3cccc(-c4cnc(CN(CC5CC5)C[C@@H]5CCC(=O)N5)c(OC)n4)c3Cl)c2Cl)cnc1CNC[C@@H]1CCC(=O)N1 [compound 329] | 0.955 nM
38 | COc1nc(-c2cccc(-c3cccc(-c4cnc(CNC[C@@H]5C[C@@H](CC(F)(F)F)C(=O)N5)c(OC)n4)c3Cl)c2Cl)cnc1CNC[C@@H]1C[C@@H](CC(F)(F)F)C(=O)N1 [compound 330] | 5.68 nM
39 | COc1nc(-c2cccc(-c3cccc(-c4cnc(CNC[C@@H]5CC6(CC6)C(=O)N5)c(OC)n4)c3Cl)c2Cl)cnc1CNC[C@@H]1CC2(CC2)C(=O)N1 [compound 331] | 0.669 nM
40 | COc1nc(-c2cccc(-c3cccc(-c4cnc(CN5[C@@H](C)COC[C@@H]5C)c(OC)n4)c3Cl)c2Cl)cnc1CNC[C@@H]1CCC(=O)N1 [compound 332] | 0.743 nM
41 | COc1nc(-c2cccc(-c3cccc(-c4cnc(CN[C@@H]5CCN(C6COC6)C5)c(OC)n4)c3Cl)c2Cl)cnc1CNC[C@@H]1CCC(=O)N1 [compound 333] | 0.171 nM
42 | COc1nc(-c2cccc(-c3cccc(-c4cnc(CN[C@@H]5CCOC[C@H]5O)c(OC)n4)c3Cl)c2Cl)cnc1CNC[C@@H]1CCC(=O)N1 [compound 334] | 0.246 nM
43 | COc1nc(-c2cccc(-c3cccc(-c4cnc(CN[C@H]5CCOC[C@@H]5O)c(OC)n4)c3Cl)c2Cl)cnc1CNC[C@@H]1CCC(=O)N1 [compound 335] | 0.172 nM
44 | COc1nc(-c2cccc(-c3cccc(-c4cnc(CN[C@H]5COCC[C@@H]5O)c(OC)n4)c3Cl)c2Cl)cnc1CNC[C@@H]1CCC(=O)N1 [compound 336] | 0.137 nM
45 | COc1nc(-c2cccc(-c3cccc(-c4cnc(CNC[C@@H]5CCC(=O)N5)c(OC)n4)c3Cl)c2Cl)cnc1CNCc1ccc(S(N)(=O)=O)s1 [compound 337] | 1.1 nM
46 | COc1nc(-c2cccc(-c3cccc(-c4cnc(CNC[C@@H]5CCC(=O)N5)c(OC)n4)c3Cl)c2Cl)cnc1CNCc1ncccc1O [compound 338] | 0.565 nM
47 | COc1nc(-c2cccc(-c3cccc(-c4cnc(CN[C@@H]5COCC[C@H]5O)c(OC)n4)c3Cl)c2Cl)cnc1CNC[C@@H]1CCC(=O)N1 [compound 339] | 0.192 nM
48 | COCCNCc1ncc(-c2cccc(-c3cccc(-c4cnc(CNC[C@@H]5CCC(=O)N5)c(OC)n4)c3Cl)c2Cl)nc1OC [compound 340] | 0.118 nM
49 | COc1nc(-c2cccc(-c3cccc(-c4cnc(CN[C@H]5C[C@@H](CO)C5)c(OC)n4)c3Cl)c2Cl)cnc1CNC[C@@H]1CCC(=O)N1 [compound 341] | 0.094 nM
50 | COc1nc(-c2cccc(-c3cccc(-c4cnc(CN[C@H]5C[C@H](O)C5)c(OC)n4)c3Cl)c2Cl)cnc1CNC[C@@H]1CCC(=O)N1 [compound 342] | 0.107 nM
51 | COc1nc(-c2cccc(-c3cccc(-c4cnc(CN[C@H]5C[C@@H](O)C5)c(OC)n4)c3Cl)c2Cl)cnc1CNC[C@@H]1CCC(=O)N1 [compound 343] | 0.126 nM
52 | COc1nc(-c2cccc(-c3cccc(-c4cnc(CNC[C@H](C)O)c(OC)n4)c3Cl)c2Cl)cnc1CNC[C@@H]1CCC(=O)N1 [compound 344] | 0.114 nM
53 | COc1nc(-c2cccc(-c3cccc(-c4cnc(CNC[C@@H](C)O)c(OC)n4)c3Cl)c2Cl)cnc1CNC[C@@H]1CCC(=O)N1 [compound 345] | 0.313 nM
54 | COc1nc(-c2cccc(-c3cccc(-c4cnc(CN[C@@H](C)CO)c(OC)n4)c3Cl)c2Cl)cnc1CNC[C@@H]1CCC(=O)N1 [compound 346] | 0.323 nM
